Results published in patent publication US8318638B2, “Plant activator” (Shiseido Company, Ltd., priority 1999, dated 2012).

Tests used:
[1] = system: morning glory (variety: murasaki); experiment: Growth promotion effect on morning glory; assay type: in vivo; conditions: 100 μm aqueous solution sprayed; measured on the 16th day; N=8; FIG. 1
Description: Seeds of morning glory (variety: murasaki) (9 g) were subjected to concentrated sulfuric acid treatment for 20 minutes, and then allowed to stand under water flow overnight. Subsequently, the seeds were placed on wet sea sand such that the hila of the seeds were directed upward for 24 hours, to thereby produce roots. The seeds having roots were planted in sea sand at a position 1.5-2.0 cm below the surface of the sand, and then cultured under continuous light irradiation (for about five days).
The entire plant bodies of the morning glory having leaves produced through this culture were transferred into a culture solution [KNO2 (250 mg), NH4NO2 (250 mg), KH2PO4 (250 mg), MgSO4.7H2O (250 mg), MnSO4.4H2O (1 mg), Fe-citrate n-hydrate (6 mg), H3BO3 (2 mg), CuSO4.5H2O (0.1 mg), ZeSO4.7H2O (0.2 mg), Na2MoO4.2H2O (0.2 mg), and Ca(H2PO4)22H2O (250 mg) in distilled water (1,000 mL)].
Water or a 100 μm specific ketol fatty acid (I) aqueous solution was sprayed to the cultured morning glory, which was then placed in the dark overnight (for 14 hours). Thereafter, the morning glory was grown under continuous light irradiation at 25° C. for 16 days, and on the 16th day the height of the plant was measured (N=8). The average of the heights of the plants is shown in FIG. 1 [note: “I” shown in FIG. 1 refers to “specific ketol fatty acid (I)”; the same shall apply to the below-described Figs.].

[2] = system: lettuce; experiment: Growth promotion effect on lettuce; assay type: in vivo; conditions: 50 μM aqueous solution sprayed five consecutive days
Description: One month after seeding of lettuce, spraying of a 50 μM specific ketol fatty acid (I) aqueous solution was carried out for five consecutive days, and growth of the lettuce (plant width) was observed.

[3] = system: broad bean; experiment: Growth promotion effect on broad bean; assay type: in vivo; conditions: 50 μm aqueous solution sprayed five consecutive days
Description: One month after seeding of broad bean, spraying of a 50 μm specific ketol fatty acid (I) aqueous solution was carried out for five consecutive days, and growth of the broad bean (plant width) was observed.

[4] = system: Eustoma russellianum; experiment: Growth promotion effect on Eustoma russellianum; assay type: in vivo
[5] = system: cyclamen; experiment: Growth promotion effect on cyclamen; assay type: in vivo; conditions: 50 μm aqueous solution sprayed five consecutive days, four months after seeding; observed for 48 days; FIG. 5
Description: Four months after seeding of cyclamen, spraying of a 50 μm specific ketol fatty acid (I) aqueous solution was carried out for five consecutive days. […] The plant width and the number of leaves were both increased.

[6] = system: chrysanthemum; experiment: Growth promotion effect on chrysanthemum; assay type: in vivo; conditions: 80 μM aqueous solution, five consecutive days then once a week for six weeks; four months after the last spraying; FIG. 7
Description: Two weeks after seeding of chrysanthemum, spraying of an 80 μm specific ketol fatty acid (I) aqueous solution was carried out for five consecutive days. Furthermore, three months after the start of the test, spraying of an 80 μM specific ketol fatty acid (I) aqueous solution was carried out for six weeks (once a week). Bolting was not observed at a nutrition growth stage of the chrysanthemum. Four months after the last spraying, the plant width was measured.

[7] = system: Begonia sempaflorens; experiment: Growth promotion effect on Begonia sempaflorens; assay type: in vivo; conditions: 80 μm aqueous solution, five consecutive days then once a week for six weeks; four months after last spraying; FIG. 10
Description: Two weeks after seeding of Begonia sempaflorens, spraying of an 80 μm specific ketol fatty acid (I) aqueous solution was carried out for five consecutive days. Furthermore, three months after the start of the test, spraying of an 80 μm specific ketol fatty acid (I) aqueous solution was carried out for six weeks (once a week). Four months after the last spraying, the leave size was measured.

[8] = system: Dianthus caryophyllus (feeling scarlet); experiment: Growth promotion effect on Dianthus caryophyllus; assay type: in vivo; conditions: 100 μm aqueous solution sprayed once, 5 mL per plant; FIG. 11
Description: Seedlings of Dianthus caryophyllus (feeling scarlet) were planted in early October, and then grown by means of a customary method. In mid-April of the next year, spraying of a 100 μm specific ketol fatty acid (I) aqueous solution was carried out (5 mL per plant), and then the height of the plants was measured.

[9] = system: Seeds of lettuce; experiment: Dry stress suppressive effect on lettuce seeds (germination); assay type: in vivo; conditions: for Number of germinated seeds: 50 seeds per group; for Germination rate (%: n = 50): seeds immersed 72 hours, dried in air 48 hours
Description: Seeds of lettuce (50 seeds per test group) were immersed in specific ketol fatty acid (I) aqueous solutions [concentration: 2 μM, 10 μM, 20 μM, and 0 μM (control)] for 72 hours, and dried in air for 48 hours. The resultant seeds were disposed on water-containing filter paper, and allowed to germinate. In each test group, germination rate—percentage (%) of germinated seeds with respect to the entirety of seeds—was obtained.

[10] = system: hyphae of P. citrinopileatus; experiment: Effect of proliferating hyphae of P. citrinopileatus Sing.; assay type: cell-based, Pleurotus citrinopileatus Sing.; conditions: 10 μM, 30 μM, 100 μm in potato-dextrose-agar medium; 37° C.; FIG. 15
Description: A potato-dextrose-agar culture medium was sterilized by use of an autoclave. After the medium was cooled to a temperature at which the agar was not solidified, a 1 mM specific ketol fatty acid (I) aqueous solution which had been sterilized by use of a membrane filter was added to the medium, to thereby prepare four culture media; i.e., a culture medium containing 0 μM of the fatty acid (I), a culture medium containing 10 μM of the fatty acid (I), a culture medium containing 30 μM of the fatty acid (I), and a culture medium containing 100 μm of the fatty acid (I). Each of the culture media was solidified in a 10-cm plate, and then hyphae of P. citrinopileatus (one platinum loop) was inoculated on the medium. Subsequently, the hyphae were cultured at 37° C., and proliferation of the hyphae was observed (10 plates for each group). Proliferation of the hyphae was evaluated on the basis of the average of the diameters of the proliferated hyphae on the plate.

With CC/C=C\C/C=C\CC(=O)C(O)CCCCCCCC(=O)O (centres unmarked) [specific ketol fatty acid (I), 9-hydroxy-10-oxo-12(Z),15(Z)-octadecadienoic acid] the “height of the plant” value [1] was “becomes larger”, the “duration of growth promotion effect” value [2] was “maintained 48 days after the start of the test” and the “growth of the lettuce (plant width)” value ([2]; one month after seeding, FIG. 2) was “exerts the effect of promoting growth of the lettuce”. The “duration of growth promotion effect” value [3] was “maintained 48 days after the start of the test”, the “growth of the broad bean (plant width)” value ([3]; one month after seeding, FIG. 3) was “exerts the effect of promoting growth of the broad bean” and the bolting ([4]; 50 μm aqueous solution sprayed to rosette leaves five consecutive days, three months after seeding) was “bolting was observed immediately after the spraying”. The plant width ([4]; 50 μm aqueous solution, observed for 48 days) was “did not increase as had been expected”, the plant height ([4]; 50 μm aqueous solution, observed for 48 days, FIG. 4) was “continued to increase 48 days after observation of growth” and the number of leaves [5] was “increased”. The plant width [5] was “increased”, the plant width [6] was “increased significantly” and the leave size [7] was “growth of the leaves is promoted”. The “height of the plants” value [8] was “growth of the Dianthus caryophyllus plant was promoted”, the “Number of germinated seeds” value ([9]; 2 μM) was 43 and the “Germination rate (%: n = 50)” value ([9]; 2 μM) was 86%. The “Number of germinated seeds” value ([9]; 10 μM) was 49, the “Germination rate (%: n = 50)” value ([9]; 10 μM) was 98% and the “Number of germinated seeds” value ([9]; 20 μM) was 45. For the same molecule, the “Germination rate (%: n = 50)” value ([9]; 20 μM) was 90% and the “degree of proliferation of the hyphae (average diameter on plate)” value [10] was “dependent on the concentration”.
